Source: patent US5288716A, “Use of pyridoxine derivatives in the prevention and treatment of hyperlipidaemia and atherosclerosis” (priority 1987, dated 1994)
Structures can show the parent of a compound that is named as a salt.

What was measured:
[1] = Tolerance of vitamin B6 and two derivatives in mice after a single oral dose of 5 g; conditions: mouse, in vivo, 5000 mg, single oral dose of 5 g, read-out: % death
Description: 3. Tolerance of vitamin B6 and two derivatives in mice after a single oral dose of 5 g

[2] = tested on: lipid metabolism; conditions: earlier experiments on animals; cited from earlier work
[3] = tested on: serum lipids; test: Effect of vitamin B6 and a derivative thereof on serum lipids in rats after 12 weeks of treatment; assay type: in vivo; conditions: diet 2.5% cholesterol plus 0.25% cholic acid, 79 mg pyridoxine/kg or equimolar dose
Experimental: 1. Effect of vitamin B6 and a derivative thereof on serum lipids in rats after 12 weeks of treatment
Group A=rats fed with normal diet without cholesterol
Group B=rats fed with a diet containing 2.5% cholesterol plus 0.25% cholic acid
Group C=as group (B) plus 79 mg pyridoxine/kg bodyweight
Group D=as group (B) plus an equimolar (to pyridoxine) dose of a pyridoxamine derivative
20 animals per group; means ±SD; difference to group B in %

[4] = tested on: lipid metabolism; test: Pyridoxine in rats (own experiments, with a positive control); assay type: in vivo; conditions: 79 mg/kg body weight
Description: This was explicitly queried in DE 24 61 742 C2 (column 3, lines 35 ff). […] Pyridoxine was used separately in earlier experiments on animals in conjunction with lipid metabolism (see Frolova, J. A.: Vitamin B6 and lipid metabolism; Vopr. med. Khim. 89, 18. 339-346 (1972)). Its effect, however, is weak.

[5] = tested on: aorta of rabbits; test: Effect of vitamin B6 and the equimolar dose of a derivative thereof on the calcium and lipid content of the aorta of rabbits after 10 weeks; assay type: in vivo; conditions: control diet 2% cholesterol, pyridoxamine 2HCl 78 mg/kg, pyridoxine HCl 62 mg/kg
Description: 2. Effect of vitamin B6 and the equimolar dose of a derivative thereof on the calcium and lipid content of the aorta of rabbits after 10 weeks of treatment as compared to a control group fed with a diet containing 2% cholesterol

[6] = tested on: aortae of the rabbits from the heart to the bifurcation; test: Aorta changes in hyperlipaemic rabbits after 10 weeks of treatment (120 mg/kg), relative to non-treated rabbits; assay type: in vivo
Experimental: The values are mean values of 18 rabbits and measured relative to a basis of non-treated rabbits.
The control group received a diet comprising 2% of cholesterol. In the group under treatment each rabbit received additionally 120 mg pyridoxamine.2 HCl/kg body weight. At the end of the test the aortae of the rabbits from the heart to the bifurcation were prepared and examined: […]

[7] = 2% cholesterol diet, 120 mg/kg body weight, 10 weeks, mean of 18, relative to non-treated

Structure (SMILES) | mortality [1] | calcium in aorta, % difference to control [5] | cholesterol in aorta, % difference to control [5] | dry weight of aorta, % difference to control [5] | total lipids in aorta, % difference to control [5] | triglycerides in aorta, % difference to control [5] | also measured
Cc1ncc(CO)c(C=O)c1O [Pyridoxal] | 100% | – | – | – | – | – | –
Cc1ncc(CO)c(CN)c1O [Pyridoxamine] | 0% | – | – | – | – | – | –
Cc1ncc(CO)c(CO)c1O [Pyridoxine] | 30% | – | – | – | – | – | effect on lipid metabolism [2]: weak; LDL + VLDL-Cholesterol, difference to group B [3]: -10%; Total serum cholesterol, difference to group B [3]: -4%; LDL + VLDL-Cholesterol ([3]; mean (SD in next line)): 150; Total serum cholesterol ([3]; mean (SD in next line)): 204; effect in rats [4]: ineffective
Cc1ncc(CO)c(CN)c1O [pyridoxamine.2 HCl] | – | -24% | -21% | -7% | -15% | -15% | decrease of calcium in aorta [6, 7]: 31%; decrease of cholesterol in aorta [6, 7]: 27%; decrease of lipids (total) in aorta [6, 7]: 18%; decrease of triglycerides in aorta [6, 7]: 17%; decrease of changes characteristic for atherosclerosis (thickening of the walls, lipid- and calcium uptake) ([6]; after 10 weeks): substantial decrease
Cc1ncc(CO)c(CO)c1O [pyridoxine · HCl] | – | +21% | -2% | -1% | -3% | +6% | –
